In paper PMC8231556, “Inhibiting Endothelial Cell Function in Normal and Tumor Angiogenesis Using BMP Type I Receptor Macrocyclic Kinase Inhibitors” (Cancers, 2021) one finds inhibition data, which are given here for 3 compounds.

Assay in all cases: radiometric kinase profiling (33 PanQinase)
Common to all, as to format: biochemical

In one assay the target is T1, CSNK1A1 (Homo sapiens, UniProt P48729).
T1 construct: purchased Proqinase, Germany
Conditions: read-out: Inhibitory effect (%) CSNK1A1. The essentials: (§1)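 Enzyme/substrate mixes were incubated with [γ-33P]-ATP and compound (added as a 0.1 μM solution in 10% DMSO) at 30 °C for 60 min, then stopped with H3PO4 and washed with NaCl. 33P incorporation was scintillation-counted, and residual activity (%) was normalized to untreated control and background.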

A further assay concerns the target T2, CAMKK1 (Homo sapiens, UniProt Q8N5S9).
T2 construct: purchased Proqinase, Germany
Conditions: read-out: Inhibitory effect (%) CAMKK1. The method in brief:
as §1

For a further assay, the target named is T3, MAP3K10 (Homo sapiens, UniProt Q02779).
T3 construct: purchased ProQinase (33PanQinase Activity Assay)
Conditions: read-out: Inhibitory effect (%) MAP3K10. The method in brief: as §1

The target in the next assay is T4, MAPK14 (Homo sapiens, UniProt Q16539).
T4 construct: purchased ProQinase (33PanQinase Activity Assay)
Conditions: read-out: Inhibitory effect (%) MAPK14. The method in brief: as §1

For another assay, the target named is T5, CSNK2A1 (Homo sapiens, UniProt P68400).
T5 construct: purchased Proqinase, Germany
The settings on record: read-out: Inhibitory effect (%) CSNK2A1. The method in brief:
as §1

The target of another assay is T6, ABL1 (Homo sapiens, UniProt P00519).
T6 construct: purchased Proqinase, Germany
Conditions: read-out: Inhibitory effect (%) ABL1. The method in brief:
as §1

A further assay concerns the target T7, CHEK1 (Homo sapiens, UniProt O14757).
T7 construct: purchased Proqinase, Germany
T7 sequence (O14757 1-476): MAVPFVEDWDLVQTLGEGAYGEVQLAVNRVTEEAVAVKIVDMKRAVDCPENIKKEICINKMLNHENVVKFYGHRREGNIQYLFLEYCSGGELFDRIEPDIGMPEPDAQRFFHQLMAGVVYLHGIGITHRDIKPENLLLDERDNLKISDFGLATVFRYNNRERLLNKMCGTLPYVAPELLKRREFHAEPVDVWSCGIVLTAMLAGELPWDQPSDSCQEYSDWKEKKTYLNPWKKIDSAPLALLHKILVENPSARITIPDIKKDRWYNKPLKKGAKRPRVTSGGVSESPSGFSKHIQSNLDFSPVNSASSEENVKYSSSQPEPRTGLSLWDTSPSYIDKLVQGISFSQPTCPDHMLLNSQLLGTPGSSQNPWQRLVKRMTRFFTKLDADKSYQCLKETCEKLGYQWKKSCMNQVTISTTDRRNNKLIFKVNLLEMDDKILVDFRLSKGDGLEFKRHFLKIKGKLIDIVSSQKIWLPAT
Conditions: read-out: Inhibitory effect (%) CHEK1. The essentials: as §1

The next assay concerns the target T8, PDK1 (Homo sapiens, UniProt O15530).
T8 construct: purchased ProQinase (33PanQinase Activity Assay)
T8 sequence (O15530 1-556): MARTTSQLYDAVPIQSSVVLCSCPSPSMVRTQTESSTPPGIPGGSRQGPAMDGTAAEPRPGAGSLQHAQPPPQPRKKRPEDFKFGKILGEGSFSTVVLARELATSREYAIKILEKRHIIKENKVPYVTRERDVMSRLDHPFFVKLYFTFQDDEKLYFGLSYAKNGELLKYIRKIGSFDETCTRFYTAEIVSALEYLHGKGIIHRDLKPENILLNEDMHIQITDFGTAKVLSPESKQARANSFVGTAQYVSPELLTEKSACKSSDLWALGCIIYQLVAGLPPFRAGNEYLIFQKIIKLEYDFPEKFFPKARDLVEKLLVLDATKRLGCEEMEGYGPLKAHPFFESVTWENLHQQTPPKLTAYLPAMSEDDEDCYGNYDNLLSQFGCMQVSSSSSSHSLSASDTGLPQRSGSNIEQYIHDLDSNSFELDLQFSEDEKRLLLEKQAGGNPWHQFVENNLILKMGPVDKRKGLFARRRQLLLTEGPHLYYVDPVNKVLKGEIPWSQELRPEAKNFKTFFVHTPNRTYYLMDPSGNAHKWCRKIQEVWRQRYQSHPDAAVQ
The settings on record: read-out: Inhibitory effect (%) PDK1. The essentials:
as §1

The target of a further assay is T9, DDR2 (Homo sapiens, UniProt Q16832).
T9 construct: purchased Proqinase, Germany
T9 sequence (Q16832 22-855): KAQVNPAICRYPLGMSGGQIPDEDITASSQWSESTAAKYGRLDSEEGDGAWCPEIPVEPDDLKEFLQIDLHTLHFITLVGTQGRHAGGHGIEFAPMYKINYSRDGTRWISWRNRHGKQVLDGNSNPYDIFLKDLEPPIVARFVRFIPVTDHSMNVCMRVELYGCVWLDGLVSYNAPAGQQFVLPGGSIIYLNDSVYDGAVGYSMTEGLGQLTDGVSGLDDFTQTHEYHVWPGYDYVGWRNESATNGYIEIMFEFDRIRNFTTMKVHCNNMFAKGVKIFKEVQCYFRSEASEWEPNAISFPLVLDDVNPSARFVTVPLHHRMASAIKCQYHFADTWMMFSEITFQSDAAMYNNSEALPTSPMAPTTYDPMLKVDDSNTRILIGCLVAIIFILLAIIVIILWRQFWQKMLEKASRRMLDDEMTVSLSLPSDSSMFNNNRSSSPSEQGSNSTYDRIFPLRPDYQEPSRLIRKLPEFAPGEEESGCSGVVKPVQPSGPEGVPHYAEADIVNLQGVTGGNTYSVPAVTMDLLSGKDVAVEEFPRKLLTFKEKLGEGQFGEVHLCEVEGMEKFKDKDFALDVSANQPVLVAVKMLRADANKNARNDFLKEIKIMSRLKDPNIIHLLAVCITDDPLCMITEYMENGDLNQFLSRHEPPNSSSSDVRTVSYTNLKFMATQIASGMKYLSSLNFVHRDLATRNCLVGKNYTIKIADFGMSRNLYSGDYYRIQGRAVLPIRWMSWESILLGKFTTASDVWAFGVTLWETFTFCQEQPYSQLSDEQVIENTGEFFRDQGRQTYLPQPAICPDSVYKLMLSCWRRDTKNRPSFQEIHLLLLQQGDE
The settings on record: read-out: Inhibitory effect (%) DDR2. The method in brief:
as §1

The target of another assay is T10, NEK6 (Homo sapiens, UniProt Q9HC98).
T10 construct: purchased ProQinase (33PanQinase Activity Assay)
The settings on record: read-out: Inhibitory effect (%) NEK6. The essentials: as §1

T4 sequence (Q16539 whole entry): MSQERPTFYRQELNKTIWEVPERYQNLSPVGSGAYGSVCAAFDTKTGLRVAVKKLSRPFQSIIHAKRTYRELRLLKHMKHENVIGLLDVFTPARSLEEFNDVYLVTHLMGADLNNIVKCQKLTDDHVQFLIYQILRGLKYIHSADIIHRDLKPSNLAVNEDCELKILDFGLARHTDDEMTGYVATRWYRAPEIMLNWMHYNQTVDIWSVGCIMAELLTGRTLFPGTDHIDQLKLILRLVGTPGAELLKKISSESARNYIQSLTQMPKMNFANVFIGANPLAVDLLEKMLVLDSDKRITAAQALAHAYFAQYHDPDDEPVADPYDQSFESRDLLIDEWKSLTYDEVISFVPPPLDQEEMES
T3 sequence (Q02779 whole entry): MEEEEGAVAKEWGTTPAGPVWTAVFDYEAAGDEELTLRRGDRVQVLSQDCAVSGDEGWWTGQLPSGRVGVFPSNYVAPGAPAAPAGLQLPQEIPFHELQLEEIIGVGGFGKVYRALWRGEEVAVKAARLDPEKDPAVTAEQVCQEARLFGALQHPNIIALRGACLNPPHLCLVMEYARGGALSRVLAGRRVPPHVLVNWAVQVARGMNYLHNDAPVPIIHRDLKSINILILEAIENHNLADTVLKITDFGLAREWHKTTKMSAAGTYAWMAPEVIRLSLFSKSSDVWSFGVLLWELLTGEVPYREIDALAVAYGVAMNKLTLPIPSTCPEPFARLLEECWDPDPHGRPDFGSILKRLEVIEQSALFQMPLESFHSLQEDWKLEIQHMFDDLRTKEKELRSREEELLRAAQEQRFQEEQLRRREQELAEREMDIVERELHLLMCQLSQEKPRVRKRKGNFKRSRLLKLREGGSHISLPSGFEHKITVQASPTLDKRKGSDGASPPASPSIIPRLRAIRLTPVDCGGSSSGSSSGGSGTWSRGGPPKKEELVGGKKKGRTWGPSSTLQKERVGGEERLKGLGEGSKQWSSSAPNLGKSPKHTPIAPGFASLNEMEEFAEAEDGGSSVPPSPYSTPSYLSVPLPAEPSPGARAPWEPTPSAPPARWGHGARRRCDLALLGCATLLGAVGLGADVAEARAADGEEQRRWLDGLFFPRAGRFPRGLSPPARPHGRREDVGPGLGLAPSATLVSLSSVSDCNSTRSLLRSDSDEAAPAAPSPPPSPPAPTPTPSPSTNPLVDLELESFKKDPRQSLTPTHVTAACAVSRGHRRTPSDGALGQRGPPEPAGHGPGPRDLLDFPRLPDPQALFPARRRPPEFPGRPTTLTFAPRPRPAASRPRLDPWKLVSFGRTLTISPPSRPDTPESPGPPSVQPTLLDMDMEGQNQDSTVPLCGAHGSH
T5 sequence (P68400 whole entry): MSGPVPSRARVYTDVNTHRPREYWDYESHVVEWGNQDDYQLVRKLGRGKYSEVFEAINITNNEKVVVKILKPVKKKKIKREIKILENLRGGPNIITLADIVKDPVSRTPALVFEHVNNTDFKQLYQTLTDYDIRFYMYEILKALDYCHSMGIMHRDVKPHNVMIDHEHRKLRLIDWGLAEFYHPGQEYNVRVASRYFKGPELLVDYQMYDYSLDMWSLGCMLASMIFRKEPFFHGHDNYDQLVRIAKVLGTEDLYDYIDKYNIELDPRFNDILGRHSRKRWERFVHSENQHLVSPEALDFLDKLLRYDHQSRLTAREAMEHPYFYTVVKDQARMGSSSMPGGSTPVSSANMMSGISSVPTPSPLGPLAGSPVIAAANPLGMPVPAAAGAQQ
T2 sequence (Q8N5S9 whole entry): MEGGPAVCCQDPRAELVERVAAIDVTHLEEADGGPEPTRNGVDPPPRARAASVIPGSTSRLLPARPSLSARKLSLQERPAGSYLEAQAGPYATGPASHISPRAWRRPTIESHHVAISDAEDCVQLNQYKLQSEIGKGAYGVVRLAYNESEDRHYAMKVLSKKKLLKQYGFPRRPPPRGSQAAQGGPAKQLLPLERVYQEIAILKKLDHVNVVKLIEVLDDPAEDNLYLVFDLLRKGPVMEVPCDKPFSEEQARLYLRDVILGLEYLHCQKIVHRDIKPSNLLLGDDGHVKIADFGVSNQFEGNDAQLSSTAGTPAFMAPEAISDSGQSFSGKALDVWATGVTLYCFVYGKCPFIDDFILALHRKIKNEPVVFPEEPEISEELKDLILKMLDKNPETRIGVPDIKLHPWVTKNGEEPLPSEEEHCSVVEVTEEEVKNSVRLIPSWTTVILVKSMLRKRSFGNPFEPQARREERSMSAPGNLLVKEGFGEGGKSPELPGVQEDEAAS
T1 sequence (P48729 whole entry): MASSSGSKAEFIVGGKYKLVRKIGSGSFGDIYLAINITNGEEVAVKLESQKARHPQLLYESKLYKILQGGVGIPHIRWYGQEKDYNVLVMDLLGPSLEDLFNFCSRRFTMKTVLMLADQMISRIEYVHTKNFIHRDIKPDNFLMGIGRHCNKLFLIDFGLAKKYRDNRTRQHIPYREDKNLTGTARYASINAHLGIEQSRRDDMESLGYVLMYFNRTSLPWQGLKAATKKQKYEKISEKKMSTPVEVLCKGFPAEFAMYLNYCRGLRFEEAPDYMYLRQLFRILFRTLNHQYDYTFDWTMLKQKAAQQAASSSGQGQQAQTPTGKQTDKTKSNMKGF
T6 sequence (P00519 whole entry): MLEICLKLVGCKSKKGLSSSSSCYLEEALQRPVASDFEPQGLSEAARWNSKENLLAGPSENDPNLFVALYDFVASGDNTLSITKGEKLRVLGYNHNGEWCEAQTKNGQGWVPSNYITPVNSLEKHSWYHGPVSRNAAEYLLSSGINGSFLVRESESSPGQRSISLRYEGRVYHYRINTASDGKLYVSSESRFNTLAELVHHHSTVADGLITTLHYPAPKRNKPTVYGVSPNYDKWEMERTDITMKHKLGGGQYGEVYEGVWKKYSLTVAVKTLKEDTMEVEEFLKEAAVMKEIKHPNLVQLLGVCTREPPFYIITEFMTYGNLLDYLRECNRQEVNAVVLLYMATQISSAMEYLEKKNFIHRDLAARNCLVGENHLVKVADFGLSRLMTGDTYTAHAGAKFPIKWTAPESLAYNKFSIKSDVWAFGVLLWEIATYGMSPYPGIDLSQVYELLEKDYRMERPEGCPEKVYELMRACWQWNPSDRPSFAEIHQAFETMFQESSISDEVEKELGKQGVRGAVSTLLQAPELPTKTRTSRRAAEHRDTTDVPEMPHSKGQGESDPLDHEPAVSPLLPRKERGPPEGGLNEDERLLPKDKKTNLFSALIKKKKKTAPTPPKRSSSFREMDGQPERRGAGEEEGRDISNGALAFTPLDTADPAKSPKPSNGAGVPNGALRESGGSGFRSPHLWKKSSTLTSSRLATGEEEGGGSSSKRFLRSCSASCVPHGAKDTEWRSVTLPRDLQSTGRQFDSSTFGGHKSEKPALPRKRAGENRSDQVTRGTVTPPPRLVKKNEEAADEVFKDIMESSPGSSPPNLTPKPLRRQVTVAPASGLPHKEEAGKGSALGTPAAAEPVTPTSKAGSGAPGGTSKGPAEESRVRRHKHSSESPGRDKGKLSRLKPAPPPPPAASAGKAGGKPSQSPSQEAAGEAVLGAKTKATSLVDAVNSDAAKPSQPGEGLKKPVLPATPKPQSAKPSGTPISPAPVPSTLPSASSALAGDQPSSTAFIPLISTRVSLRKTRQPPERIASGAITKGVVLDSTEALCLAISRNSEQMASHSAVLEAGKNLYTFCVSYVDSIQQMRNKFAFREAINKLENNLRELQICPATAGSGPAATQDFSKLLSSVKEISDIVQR
T10 sequence (Q9HC98 whole entry): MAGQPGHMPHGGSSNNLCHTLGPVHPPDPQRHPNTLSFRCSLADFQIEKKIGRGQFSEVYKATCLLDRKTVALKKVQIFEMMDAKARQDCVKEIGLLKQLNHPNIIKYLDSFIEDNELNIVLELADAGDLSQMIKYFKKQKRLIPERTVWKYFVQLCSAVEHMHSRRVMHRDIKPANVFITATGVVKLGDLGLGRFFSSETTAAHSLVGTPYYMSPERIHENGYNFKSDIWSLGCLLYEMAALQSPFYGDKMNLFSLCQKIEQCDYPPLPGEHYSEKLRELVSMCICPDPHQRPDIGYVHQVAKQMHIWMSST

In the case of `c1ccc2c(-c3cnn4cc(-c5ccc(N6CCNCC6)cc5)cnc34)ccnc2c1` [LDN-193189, reference compound], the inhibition at 0.1 µM at CSNK1A1 is -3.63%; at CAMKK1, 0.77%; on MAP3K10, -26.4%; on MAPK14 it was 0.3%; on CSNK2A1 it was -10.9%; on ABL1, 12.5%. For the same compound, the inhibition at 0.1 µM was -34.6% at CHEK1, -8.72% on PDK1, 10.1% at DDR2 and 7.05% on NEK6.

For `CN1CCc2cccc(c2)Nc2nccc(n2)N2CCCc3cc(ccc32)C1` [OD16], the inhibition at 0.1 µM on CSNK1A1 is 0.99%; at CAMKK1, -1.72%; on MAP3K10, 1.85%; on MAPK14, -3.1%; on CSNK2A1, -9.27%; on ABL1, -20.1%. Besides, the inhibition at 0.1 µM was 0.85% at CHEK1, -7.16% at PDK1, 33.5% on DDR2 and -21.1% on NEK6.

For the compound `CN1CCC(=O)NCCNc2ccn3ncc(c3n2)-c2cccc(c2)C1` [OD29], the inhibition at 0.1 µM at CSNK1A1 was -2.21%; at CAMKK1 it was -29.5%; at MAP3K10, 1.57%; at MAPK14, 45.2%; at CSNK2A1, -1.02%; at ABL1, 18.7%. Moreover, the inhibition at 0.1 µM is 4.25% on CHEK1, -1.4% on PDK1, 12.9% at DDR2 and 4.01% on NEK6.
